Several values for one entry are separate records, joined by “and”; a condition that tells them apart may be missing. Identical values can stand only once. Like-named read-outs stand apart in the source and are kept apart here. Bounds are passed on as bounds.

The IC50 is the point on the concentration scale where inhibition reaches its midpoint.

The subject of one data set is BJ cells. Description: APOPercentage dye-uptake apoptosis assay, BJ. In kind it is cell-based, human. How it is done:
(§1) To further test if the cancer cells in present investigation are dying via apoptosis, a dye inclusion assay called APOPercentage was performed. APOPercentage™ is a dye-uptake assay that detects apoptotic cells during phospholipid phosphatidylserine (PS) trans-membrane movement. It has been established previously that APOPercentage™ can be used to detect early stages of apoptosis as efficiently as other technologies like Annexin V.
(§2) The cells were plated in 96 well plates at a density of 5×10^3 cells per well in triplicate in 90 μl of media. The cells were treated with 10 μl of desired concentration of plumbagin and derivative ‘A’ in DMEM media. The cells were incubated at 37° C. for 12 hr and 24 hr in different plates. 5 mM H2O2 was treated for 30 minutes to 1 hour as a positive control. The cells were stained with APOPercentage dye as per instructions from the vendor (Biocolor, UK). The cells were photographed with Nikon TS100 microscope. The OD was measured at 550 nm absorbance using BMG Pherastar and percentage of cells taking up APOPercentage dye was calculated.

The text on data set [1]:
At the end of the experiment (the 22nd day after initiating drug treatment), the blood from some tumor-bearing mice per group (4 mice from the group 1, 5 mice from the group 2, 4 mice from the group 3) were collected by cardiac puncture, and the mice were sacrificed by cervical dislocation while under deep anesthesia. The other tumor-bearing mice from each group (5 mice from the group 1, 5 mice from the group 2) were sacrificed after another 13 days treatment (the 35th day after initiating drug treatment), the blood was collected while sacrificing the mice. The tumor samples were harvested, weighed, cut into small pieces and snap frozen in liquid nitrogen for RNA extraction. The liver were harvested and fixed in 10% NBF, and embedded in paraffin for histology analysis.
Blood were collected from all animals by terminal bleed for subsequent serum preparation, and serum was prepared at the end of the study for each animal. Serum samples were frozen in microcentrifuge tube at −80° C. To test the liver toxicity of the two compounds, biochemical dictators (ALT, AST) were analyzed in all the serum samples no more than 3 days after collection. The excess serum samples would be sent to client.
The serum was collected as explained above in methods and was used to assess the activity of ALT (alanine aminotransferase) and AST (aspartate aminotransferase).

A short description of data set [2]: General toxicity in nude mice (mortality, tolerance, body weight). In kind it is in vivo. How it is done: (§3) When the tumor size reached a volume of 150 (150-220) mm^3, the tumor-bearing nude mice derived from MCF-7 cells were randomly assigned into 3 groups (10 mice/group): Group 1 was served as vehicle group (25% PEG400, 200 μl/20 g mouse, i.p, qd for 21 days and 25% PEG400, 400 μl/20g mouse, i.p, qd for 13 days), group 2 was administrated with derivative ‘A’ (5 mg/kg for 21 days and 10 mg/kg for 13 days, i.p, qd), group 3 was administrated with plumbagin (2 mg/kg for 21 days, i.p, qd). The administration period lasted for 3 weeks and 5 weeks. The detailed sacrificing schedule is described in section 5.
If abnormal appearance and behavior or signs of morbidity and/or mortality was seen through the cage side observation, the veterinarian would be notified and proper physical examination and/or necropsy would be performed. The food consumption in each group would be recorded. Frequency: daily just after the cell inoculation and twice a day thereafter starting on first dosing.
(§4) The tumor volume was measured every other day with calipers, and the body weight was measured immediately before measuring the tumor volume throughout the whole study. If the body weight loss is approaching 20%, stop dosing or decreased dosage will be carried out.
The use of different treatment concentrations (dosages) of derivative ‘A’ and plumbagin was due to the high toxicity of plumbagin at 5 mg/kg dose (8 mice died due to toxicity in first few days).

In data set [3] the test system is MCF-7 (human breast cancer cell line). Description: MTT cytotoxicity assay, MCF-7. How it is done:
(§5) The cytotoxicity of plumbagin and derivative ‘A’ was estimated by MTT assay. Cells were plated in a 384-well culture plates (2000 cells per well in 20 μl of media) for 24 h and cells were treated with various concentrations (0, 1.0, 5.0, 10.0, 20.0, 40.0, 80.0 and 100.0 μM) for 12 hr, 24 hr, 36 hr and 48 hr. Following desired incubation time, 5 μl of sterile 5 mg/ml MTT (3-(4,5-Dimethylthiazol-z-yl)-2,5diphenyltetrazolium bromide) (Sigma) dissolved in PBS was added to each well and the cells were incubated for another 4 hr followed by the addition of 30 μl of solubilisation solution (10% SDS, 10 mM HCl) and incubation for 16 hr at 37° C. The OD of each well at 595 nm was determined using a microtiter plate reader (BMG Pherastar).
A general note: Tetrazolium dyes change colour on reduction, which living cells bring about.

Data set [4] in a line: Liver tissue H&E staining. The format is in vivo, nude mice. To be noted: FIG. 12. How it is done:
To test the liver toxicity of the two compounds, livers were harvested from all animals while sacrificing the animals. One piece of the liver was fixed in 10% NBF, and embeded in paraffin for pathology analysis, 1 paraffin block was prepared from each liver sample, 2 slides were used for H&E staining.
The following indications were examined on the photographs for liver tissue H&E staining (FIG. 12): (1) If the liver cells produce fatty degeneration, necrosis, hepatic lobule inflammation or not; (2) If the hepaticus sinus produce dilation or hyperaemia or not; (3) If the hepaticus portal area produce the inflammation or fibrous tissue hyperplasia or not. According to pathology degree from low to high: no lesion “−”, minor lesion “±”, low lesion “+”, middle lesion “++”, high lesion “+++”, highest lesion “++++”. […] The vehicle control is rather showing more toxicity to liver as compared to compounds under testing.

For data set [5], the system named is HepG2 (Hepatocellular carcinoma) cell line. Description: MTT cytotoxicity assay, HepG2 (in vitro hepatotoxicity model). To be noted: for IC50: read-out: IC50 against HepG2. How it is done: as §5
The next data set concerns MCF-7 tumor. Description: MCF-7 xenograft tumor inhibition in nude mice. The format is in vivo. More on the design: Tumor weight at autopsy, individual mouse (1-5) / Tumor weight at autopsy, AV: unit not given here. The note with it: for Tumor volume measured externally, AV / Tumor volume measured externally, individual mouse (1-5) / Tumor weight at autopsy, AV / Tumor weight at autopsy, individual mouse (1-5) / Tumor inhibition rate (C − T)/C × 100%, tumor volume / Tumor inhibition rate (C − T)/C × 100%, tumor weight: Compound A 5 mg/kg, Compound P 2 mg/kg, i.p, qd*21 days; for Tumor inhibition rate (C − T)/C × 100%, tumor volume: based on tumor volume by calipers; for Tumor inhibition rate (C − T)/C × 100%, tumor weight: based on tumor weight at autopsy. How it is done: Amplified and implanted (S.C.) the cancer cells (MCF-7) into 4 nude mice with 1.0×10^7 cells in 0.1 ml PBS plus matrigel (1:1) /mouse, when tumors reach 300-500 mm^3, the tumor masses were harvested, cut into small pieces of approximately 1-2 mm^3, and then surgically implanted into the 42 new nude mice for model set up (eventually 30 tumor-bearing mice are selected).
as §3, §4
Tumor sizes were measured every other day in two dimensions using a caliper, and the volume were expressed in mm^3 using the formula: V=½×a×b^2 where a and b are the long and short diameters of the tumor, respectively.
The tumor mass were weighed and photographed at the end of the experiment after harvested.
Inhibition rate (%)=(average tumor volume of control group-average cancer volume of test group)/average tumor volume of control group ×100%

For data set [6], the system named is MCF-7 cells. Put plainly: Microarray expression and pathway analysis in MCF-7 cells. The format is cell-based, human. The note with it: for 'Atherosclerosis signaling' pathway: MCF-7 induced with 5 and 10 μM, IPA pathway mapping. How it is done: Microarray analysis was performed in an effort to identify the possible mechanism of action of derivative ‘A’. The MCF-7 cells induced with 5 and 10 μM of derivative ‘A’ and plumbagin were subjected to microarray experiments and the fold-change in expression was calculated as compared to untreated samples. The lists of differentially expressed genes were mapped to pathways using Ingenuity Pathway Analysis (IPA) tool and several key pathways affected by treatment of derivative ‘A’ and plumbagin were identified. ‘Atherosclerosis signaling’ was one of the key pathways that were affected by derivative ‘A’ and not the plumbagin.

The subject of data set [7] is BJ cell line (human normal fibroblast cells). Description: MTT cytotoxicity assay, BJ normal fibroblasts. How it is done: as §5
Data set [8] concerns MCF-7 cells. Description: APOPercentage dye-uptake apoptosis assay, MCF-7. In kind it is cell-based, human. How it is done: as §1, §2
[9] abbreviates: after 24 hr (20 μM per preceding sentence).
[10] abbreviates: MTT time-course screening (12, 24, 36, 48 hr).

Regarding `CC(=O)Oc1cccc2c1C(=O)C=C(C)C2=O` [derivative ‘A’, acetyl plumbagin], the “safety for normal cells” value with BJ cells (10 μM, treatment for 24 hr) is recorded as “safe”. In addition, the “normal cells undergoing apoptosis” value in the data set with BJ cells (setting [9]) is on record as 20%. The “effect on normal cells (growth inhibition and apoptosis)” value with BJ cells (up to 20 μM, treatment for 12 hr) is on record as “relatively unaffected”. The “ALT and AST values” in [1] (in vivo summary) is recorded as “low”. The “mean ALT value (FIG. 10)” value in data set [1] (outliers removed) was “lower than plumbagin and even lower than vehicle treated mice”. The “animal deaths with treatment” value in [2] (5 mg/kg 21 days, 10 mg/kg 13 days, i.p, qd) is listed as “No animal died”. Further, the body weight loss entry in data set [2] (in the course of the treatment) is listed as “minimum”. Besides, the “cytotoxicity in MCF-7” value in [3] (10 μM, 12 hr of treatment) is “comparative to plumbagin”. For the same compound, the “inhibits metabolic activity of cancer cells” value in [3] (10 μM, after 12 hr of treatment (FIG. 2)) is given as 90%. Besides, the “activity against MCF-7 cells” value in data set [3] (setting [10]) is given as “selective apoptotic activity”. In data set [4], the “liver toxicity by H&E staining of liver tissue” value was “less toxic to liver as compared to plumbagin”. Besides, in data set [5] (setting [10]), the “hepatotoxicity (data based on HepG2 cell line)” value was “negligible”. Also, the IC50 in data set [5] (HepG2, 24 hr of treatment) worked out at 41.2 µM. In the data set with MCF-7 tumor, the “Tumor volume measured externally, AV” value was 420.9 mm^3; the “Tumor volume measured externally, individual mouse (1-5)” value is 493.1 mm^3 and 595.4 mm^3 and 151.4 mm^3 and 486.0 mm^3 and 378.5 mm^3; the “Tumor weight at autopsy, AV” value is listed as 0.3145; the “Tumor weight at autopsy, individual mouse (1-5)” value was 0.3930 and 0.3862 and 0.3802 and 0.3290 and 0.0843. In the data set with MCF-7 tumor, the “Tumor inhibition rate (C − T)/C × 100%, tumor volume” value was found to be 37.69% and the “Tumor inhibition rate (C − T)/C × 100%, tumor weight” value is recorded as 44.96%. Besides, the “tumor size (FIGS. 6A-6B)” value in the data set with MCF-7 tumor (group of treated mice versus other groups) was “smaller”. Moreover, the “gene families down-regulated as compared to untreated samples” value in the data set with MCF-7 cells [6] (MCF-7, 10 μM, interleukins, MMPs, CXCL family members) is given as over 2 fold. The “'Atherosclerosis signaling' pathway” value with MCF-7 cells [6] was “affected”. For the same compound, the “toxicity against BJ cell line” value in data set [7] (10 μM, 12 hr) is given as “almost nil”. In addition, the “toxicity against BJ cell line, times less than plumbagin” value in [7] (10 μM, 24 hr, compared to plumbagin at the same concentration) is about 20 times. Moreover, the “normal cells BJ inhibited” value in data set [7] (20 μM, after 36 hr of treatment (FIG. 2)) is listed as 20%. The “effect on normal fibroblasts” value in data set [7] (setting [10]) was “relatively unaffected”. In addition, the “toxicity in BJ cell line, folds less than Plumbagin” value in [7] (after 36 hr of induction) is reported as about 4.5 folds. The “apoptosis induced in cancer cells” value in the data set on MCF-7 cells [8] (10 μM, 24 hr) is reported as “about 50%”. Moreover, in the data set on MCF-7 cells [8] (setting [9]), the “cancer cells undergoing apoptosis” value came to 100%.
As for `CC1=CC(=O)c2c(O)cccc2C1=O` [plumbagin, 5-hydroxy-2-methyl-1,4-naphthoquinone, reference compound], the “tolerance by mice (body weight loss)” value in [2] (2 mg/kg dose, separate regimen with 1, 2 and 3 mg/kg) is reported as “well tolerated”. In addition, the inhibition at 5 µM in data set [3] (Homo sapiens, MCF7, 12 h, read-out: inhibits metabolic activity of cancer cells) amounted to 90%. Moreover, the IC50 in data set [5] (Homo sapiens, HepG2, 24 h) is 10.2 µM. Moreover, in the data set on MCF-7 tumor, the “Tumor volume measured externally, AV” value is given as 560.2 mm^3; the “Tumor weight at autopsy, AV” value is 0.6020; the “Tumor inhibition rate (C − T)/C × 100%, tumor volume” value was found to be 17.07%; the “Tumor inhibition rate (C − T)/C × 100%, tumor weight” value is given as −5.35%. In addition, in the data set on MCF-7 tumor (listed as Compound P), the “Tumor volume measured externally, individual mouse (1-5)” value was 1441.7 mm^3 and 260.9 mm^3 and 234.5 mm^3 and 303.8 mm^3; the “Tumor weight at autopsy, individual mouse (1-5)” value is 1.3530 and 0.4301 and 0.3675 and 0.2574. The “'Atherosclerosis signaling' pathway” value with MCF-7 cells [6] was “not”. Moreover, the inhibition at 10 µM in [7] (Homo sapiens, BJ, 12 h, read-out: inhibits metabolic activity of normal cells BJ) is about 70%. Further, the “apoptosis in cancer cells” value in the data set with MCF-7 cells [8] (5 μM, within 24 hr of treatment) is “induces apoptosis”.

The values are drawn from patent publication US9890106B2, “Anti-cancer lead molecule” (KING ABDULLAH UNIVERSITY OF SCIENCE AND TECHNOLOGY, priority 2012, dated 2018).
